The values below are quoted from earlier work in patent publication US9961900B2, “Herbicide formulations” (priority 2012, dated 2018).

Structures are written as SMILES. Values after ≈ are worked out from the molar mass of the structure shown. Like-named read-outs stand apart in the source and are kept apart here. Some results are limits rather than exact numbers.

Assay in series [1]: not given
The source holds these as a separate data set.

Assay in series [2]: not given
This is another data set of the same source.

For series [3] the following is noted: for Aqueous hydrolysis: at pH 7 and 20° C.

Take `CCCC(=NOCC)C1=C(O)C[C@@H]([C@H]2CCCSC2)CC1=O` (racemic) [cycloxydim, (5RS)-2-[(EZ)-1-(ethoxyimino)butyl]-3-hydroxy-5-[(3RS)-thian-3-yl]cyclohex-2-en-1-one]: the “Aqueous photolysis DT50” value (pH 7) is “Aqueous photolysis DT50 at pH 7: 0.05 days ^+”.

Turning to `CCOC(=O)C(Cl)Cc1cc(-n2nc(C)n(C(F)F)c2=O)c(F)cc1Cl` (racemic) [carfentrazone-ethyl, ethyl (RS)-2-chloro-3-{2-chloro-5-[4-(difluoromethyl)-4,5-dihydro-3-methyl-5-oxo-1H-1,2,4-triazol-1-yl]-4-fluorophenyl}propionate], in series [1] (20° C.), the Solubility in acetone is 2000 mg/mL (≈ 4850 mM), the Solubility in ethanol was 2000 mg/mL (≈ 4850 mM), the Solubility in hexane was 30 mg/mL (≈ 72.8 mM) and the Solubility in toluene is 900 mg/mL (≈ 2180 mM). In series [1] (20° C.), the Solubility in water result is given as “Water: 22 mg/L (20° C.)”. The “log P (octanol-water)” value in series [2] (pH 7, 20° C.) was “logP = 3.36”. The “Aqueous hydrolysis (DT50)” value in series [3] (20° C. and pH 7) is 13.7 (non-persistent) days. The Aqueous hydrolysis stability entry in series [3] (pH 5, 20° C.) was “pH sensitive: stable at pH 5,”. Moreover, in series [3] (pH 9, 20° C.), the “Hydrolysis DT50” value was “DT50 5.1 hours at pH 9, (20° C.)^+”.

Consider `CCCCOC(=O)C(C)Oc1ccc(Oc2ccc(C(F)(F)F)cn2)cc1` (racemic) [fluazifop-butyl, butyl (RS)-2-{4-[5-(trifluoromethyl)-2-pyridyloxy]phenoxy}propionate], for which the “Solubility in propylene glycol” value in series [1] (20° C.) is “dichloromethane, and xylene. Propylene glycol, 24 g/L”. Further, the Solubility in water entry in series [1] (pH 6.5) is “Water: 1 mg/L at pH 6.5”. For the same compound, in series [2] (20° C.), the “log P (octanol-water)” value is recorded as “log P = 4.5”.

For `C=CCO/N=C(\CCC)C1=C(O)CC(C)(C)C(C(=O)OC)C1=O` (racemic) [aloxydim, methyl (1RS)-3-[(E)-1-(allyloxyimino)butyl]-4-hydroxy-6,6-dimethyl-2-oxocyclohex-3-enecarboxylate], under “pH 7”, the “Aqueous photolysis DT50” value is on record as “Aqueous photolysis DT50 at pH 7: 0.22 days ^+”.

As to `C#CCOc1cc(-n2nc3n(c2=O)CCCC3)c(Cl)cc1Cl` [azafenidin, 2-(2,4-dichloro-5-prop-2-ynyloxyphenyl)-5,6,7,8-tetrahydro-1,2,4-triazolo[4,3-a]pyridin-3(2H)-one], the Solubility in water result in series [1] (20° C.) is given as “Water: 16 mg/L (20° C.) ^++”. The “log P (octanol-water)” value in series [2] (pH 7, 20° C.) is reported as “logP = 2.7”. For the same compound, the “Aqueous photolysis DT50” value (Pesticide Properties Database) is reported as 0.5 days.

On to `COC(=O)c1ccccc1S(=O)(=O)NC(=O)N(C)c1nc(C)nc(OC)n1` [tribenuron-methyl], for which the “Aqueous hydrolysis (DT50)” value in series [3] (at pH 5) is 2.2 days; in series [3] (at pH 7) it was 16. Also, the “Photolytic stability DT50” value (pH 7) is given as “Stable”.

For `COC(=O)c1ccccc1S(=O)(=O)NC(=O)Nc1nc(C)nc(OC)n1` [metsulfuron-methyl], the “Aqueous hydrolysis (DT50)” value is 2 days in series [3] (at pH 5) and “Stable” in series [3] (at pH 7). The “Photolytic stability DT50” value (pH 7) is listed as “Stable”.

For the compound `COc1cnc(OC)n2nc(NS(=O)(=O)c3c(OCC(F)F)cccc3C(F)(F)F)nc12` [penoxsulam], in series [3], the Aqueous hydrolysis entry was “Stable (at pH 7 and 20° C.)”. Under “pH 7”, the “Photolytic stability DT50” value is on record as “DT50: 2 d (at pH 7)”.

On to `COc1cc(OC)n2nc(S(=O)(=O)Nc3c(Cl)ccc(C)c3Cl)nc2n1` [metosulam], for which, in series [3], the Aqueous hydrolysis entry is “Stable”. Besides, the “Photolytic stability DT50” value (pH 7) is given as “DT50: 31.1 d”.

With `C[C@@H](Oc1ccc(Oc2cnc3cc(Cl)ccc3n2)cc1)C(=O)OCC1CCCO1` (stereo partly shown) [quizalofop-P-tefuryl], the “Aqueous hydrolysis (DT50)” value in series [3] (20° C. and pH 7) was “Aqueous hydrolysis DT50 at 20 °C and pH 7: 18.2 days”. The “Hydrolysis DT50” value in series [3] (pH 5.1, 22° C.) was 8.2 days; in series [3] (pH 9.2, 22° C.) it was 0.3 days. Also, the “Aqueous photolysis DT50” value (pH 7) is “Aqueous photolysis DT50 at pH 7: 1.0 days”.

Turning to `C#CCOC(=O)[C@@H](C)Oc1ccc(Oc2ncc(Cl)cc2F)cc1` [clodinafop-propargyl, prop-2-ynyl (R)-2-[4-(5-chloro-3-fluoro-2-pyridyloxy)phenoxy]propionate], the “Behaviour in alkaline media” value in series [3] (alkaline media) was “hydrolyzes”. The “Hydrolytic DT50” value is 4.8 days in series [3] (pH 7, 25° C.) and 0.07 days in series [3] (pH 9, 25° C.). Where the note is “pH 7”, the “Aqueous photolysis DT50” value was “Aqueous photolysis DT50 at pH 7: 24 days”.

For `CCON=C(CC)C1=C(O)CC(c2c(C)cc(C)cc2C)CC1=O` (racemic) [tralkoxydim, (RS)-2-[(EZ)-1-(ethoxyimino)propyl]-3-hydroxy-5-mesitylcyclohex-2-en-1-one], the Solubility in water in series [1] (pH 5.2) was 6.7 mg/L at 22 °C (pH 5.2); in series [1] (pH 6.5), 6.1 mg/L at 22 °C (pH 6.5); in series [1] (pH 9), 9820 mg/L at 22 °C (pH 9.0). Besides, the “Aqueous hydrolysis (DT50)” value in series [3] (20° C. and pH 7) is “at 20 °C and pH 7: 140 days”. Moreover, the “Hydrolysis DT50” value in series [3] (pH 5, 25° C.) was “pH sensitive: DT50 9 days at pH 5,”. Further, the Aqueous hydrolysis stability result in series [3] (pH 9) is on record as “stable at pH 9, all at 25° C.^+”. For the same compound, where the note is “pH 7”, the “Aqueous photolysis DT50” value was “Aqueous photolysis DT50 at pH 7: 5.8 days 5.8 ^+”.

For `COc1cc(OC)n2nc(NS(=O)(=O)c3c(C(F)(F)F)ccnc3OC)nc2n1` [pyroxsulam], the Aqueous hydrolysis entry in series [3] is listed as “Stable (“”)”. Where the note is “pH 7”, the “Photolytic stability DT50” value is on record as “DT50: 3.2 d (“”)”.

Consider `CC(Oc1ccc(Oc2ccc(Cl)cc2Cl)cc1)C(=O)O` (racemic) [diclofop, (RS)-2-[4-(2,4-dichlorophenoxy)phenoxy]propionic acid], for which the “log P (octanol-water)” value is given as “log P = 2.81” in series [2] (pH 5) and “log P = 1.61” in series [2] (pH 7).

Consider `CCCCOC(=O)[C@@H](C)Oc1ccc(Oc2ccc(C#N)cc2F)cc1` [cyhalofop-butyl, butyl (R)-2-[4-(4-cyano-2-fluorophenoxy)phenoxy]propionate], for which the “log P (octanol-water)” value in series [2] (pH 7, 20° C.) is “log P = 4.8”. Further, in series [3] (20° C. and pH 7), the “Aqueous hydrolysis (DT50)” value is “Aqueous hydrolysis DT50 at 20 °C and pH 7: 97 days”. Further, the Aqueous hydrolysis stability entry in series [3] (pH 4, 25° C.) is reported as “Stable”. Also, the “Hydrolysis DT50” value in series [3] (pH 9, 25° C.) is recorded as 2 days.

Take `COc1nc(C)nc(NC(=O)NS(=O)(=O)c2ccccc2Cl)n1` [chlorsulfuron]: the “Aqueous hydrolysis (DT50)” value was 1 days in series [3] (at pH 5) and “Stable” in series [3] (at pH 7). Besides, the “Photolytic stability DT50” value (pH 7) was “DT50: 18.8 d”.

For the compound `CCOC(=O)C(C)Oc1ccc(Oc2nc3ccc(Cl)cc3s2)cc1` (racemic) [fenthiaprop-ethyl, ethyl (RS)-2-[4-(6-chloro-1,3-benzothiazol-2-yloxy)phenoxy]propionate], in series [1], the Solubility in acetone result is “In acetone, ethyl acetate, toluene, >500 g/kg;”; the Solubility in cyclohexane was > 40 g/kg; the Solubility in ethanol is > 50 mg/mL; the “Solubility in ethyl acetate” value was “In acetone, ethyl acetate, toluene, >500 g/kg;”. For the same compound, in series [1], the Solubility in n-octanol is > 50 mg/mL; the Solubility in toluene entry is “In acetone, ethyl acetate, toluene, >500 g/kg;”; the Solubility in water result is listed as “Water: 0.8 mg/L”.

In the case of `C[C@@H](Oc1ccc(Oc2ncc(C(F)(F)F)cc2Cl)cc1)C(=O)O` [haloxyfop-P, (R)-2-{4-[3-chloro-5-(trifluoromethyl)-2-pyridyloxy]phenoxy}propionic acid], where the note is “pH 7”, the “Aqueous photolysis DT50” value is listed as “Aqueous photolysis DT50 at pH 7: 12 days”.

As to `COc1cc(OC)nc(NC(=O)NS(=O)(=O)c2ncccc2C(=O)N(C)C)n1` [nicosulfuron], the “Aqueous hydrolysis (DT50)” value in series [3] (at pH 5) is 15 days; in series [3] (at pH 7) it was “Stable”. Besides, the “Photolytic stability DT50” value (at pH 7) is listed as “DT50: 202 d”.

With `CC(C)=NOCCOC(=O)[C@@H](C)Oc1ccc(Oc2cnc3cc(Cl)ccc3n2)cc1` [propaquizafop, 2-isopropylideneaminooxyethyl (R)-2-[4-(6-chloroquinoxalin-2-yloxy)phenoxy]propionate], the “Hydrolytic DT50” value in series [3] (pH 5, 25° C.) is 10.5 days; in series [3] (pH 7, 25° C.) it was 32.0 days; in series [3] (pH 9, 25° C.), 0.538 days.

In the case of `CCOC(=O)C(C)Oc1ccc(Oc2cnc3cc(Cl)ccc3n2)cc1` (racemic) [quizalofop-ethyl, ethyl (2RS)-2-[4-(6-chloroquinoxalin-2-yloxy)phenoxy]propionate], in series [3] (pH 3), the “Stability in aqueous media” value was “Stable at pH 3-7 ^+”.

As to `CCCCOC(=O)[C@@H](C)Oc1ccc(Oc2ccc(C(F)(F)F)cn2)cc1` [fluazifop-P-butyl, butyl (R)-2-{4-[5-(trifluoromethyl)-2-pyridyloxy]phenoxy}propionate], the “Aqueous hydrolysis (DT50)” value in series [3] (20° C. and pH 7) is “Aqueous hydrolysis DT50 (days) at 20 °C and pH 7: 78”. In addition, the “Hydrolysis DT50” value in series [3] (pH 5, 25° C., darkness) is “Stable”; in series [3] (pH 9, 25° C., darkness) it was 1.21 days. Further, the “Aqueous photolysis DT50” value (pH 7) was “Aqueous photolysis DT50 at pH 7: 6 days”.

As for `Cc1ccn2nc(S(=O)(=O)Nc3c(F)cccc3F)nc2n1` [flumetsulam], under “pH 7”, the “Photolytic stability DT50” value is reported as “DT50: 270 d”.

As to `CC(Oc1ccc(Oc2ncc(C(F)(F)F)cc2Cl)cc1)C(=O)O` (racemic) [haloxyfop, (RS)-2-{4-[3-chloro-5-(trifluoromethyl)-2-pyridyloxy]phenoxy}propionic acid], the “Aqueous hydrolysis (DT50)” value in series [3] (20° C. and pH 7) is on record as “Stable”. The “Aqueous photolysis DT50” value (pH 7) was “Aqueous photolysis DT50 at pH 7: 12 days”.

As to `CCS[C@H](C)C[C@H]1CC(=O)C(C(CC)=NOC/C=C/Cl)=C(O)C1` (racemic) [clethodim, (5RS)-2-{(1EZ)-1-[(2E)-3-chloroallyloxyimino]propyl}-5-[(2RS)-2-(ethylthio)propyl]-3-hydroxycyclohex-2-en-1-one], the “Aqueous photolysis DT50” value is recorded as 1.6 days (pH 5, 25° C.); “Aqueous photolysis DT50 at pH 7: 5.45 days (25° C.)” (pH 7, 25° C.); 7.79 days (pH 9, 25° C.).

Consider `CCCC(=NOCC)C1=C(O)C[C@@H](C[C@@H](C)SCC)CC1=O` (racemic) [sethoxydim, (5RS)-2-[(EZ)-1-(ethoxyimino)butyl]-5-[(2RS)-2-(ethylthio)propyl]-3-hydroxycyclohex-2-en-1-one], for which the “Aqueous photolysis DT50” value (pH 7) is listed as “Aqueous photolysis DT50 at pH 7: 0.02 days ^+”.
